Experimental data reported in patent publication US11939327B2, “Heterocyclic compounds” (Takeda Pharmaceutical Company Limited, priority 2017, dated 2024).

Key:
[1] = target: T1, human GluR1 flip (Homo sapiens, UniProt P42261); assay: AMPA receptor function-enhancing activity using calcium influx as index (CHO-K1/GluR1 flip/stargazin-expressing cells); assay type: cell-based; settings: CHO-K1, test compound 30 μM with 3 mM glutamic acid, 100% = 3 mM glutamic acid + 300 μM cyclothiazide, 0% = 3 mM glutamic acid alone, read-out: hGluR1 flip/30 μM (%)
T1 construct: expressed in transfected cells; host or cells: CHO-K1
Excerpt: Experimental Example 1 Measurement method of AMPA receptor function-enhancing activity of compound using calcium influx as index
(1) Construction of Expression Gene
Human GluR1 flip cDNA was amplified by PCR method using forward primer […] (SEQ ID NO: 1) and reverse primer […] (SEQ ID NO: 2) artificially synthesized using human brain-derived cDNA (BD Bioscience) as a template. The amplified product was digested with restriction enzymes EcoRI, NotI (TAKARA SHUZO CO. LTD.) and incorporated into the same site of pcDNA3.1(+) (Invitrogen) to construct pcDNA3.1(+)/human GluR1 flip gene. Human stargazin cDNA was amplified by PCR method using forward primer […] (SEQ ID NO: 3) and reverse primer […] (SEQ ID NO: 4) artificially synthesized using human hippocampus cDNA as a template. The amplified product was digested with restriction enzymes XhoI, BamHI (TAKARA SHUZO CO. LTD.) and incorporated into the same site of pcDNA3.1(−) (Invitrogen) to construct pcDNA3.1 Zeo(−)/human stargazing gene.
(2) Construction of GluR1 Flip/Stargazin Expressing Cell
CHO-K1 cells passaged in a culture medium (Ham's F12 medium (Invitrogen) added with 10% inactivated fetal bovine serum (Morgate) and penicillin, streptomycin (Invitrogen)) were detached using 0.05% trypsin and 0.53 mM EDTA (Invitrogen) diluted with D-PBS(−). The detached cells were suspended in a culture medium, and recovered by centrifugation at 1,000 rpm. The recovered cells were re-suspended in D-PBS(−) and added into 0.4 cm electroporation cuvette (BioRad). pcDNA3.1(+)/human GluR1 flip gene (5 μg) and pcDNA3.1 Zeo(−)/human stargazin gene (15 μg) were added, and introduced into CHO-K1 cells under the conditions of 950 μFd, […] and using Gene Pulser II (BioRad). The introduced cells were cultured overnight in a culture medium. The next day, using a selection medium (culture medium added with zeocin (Invitrogen) at 250 μg/mL), the cells were plated in a 96 well plate at 250 cells/well. The clones showing drug resistance were selected, and GluR1 flip/stargazin expression clones were selected by an assay method shown below using calcium influx as an index.
(3) Measurement Method of AMPA Receptor Function-Enhancing Activity of Compound, Using Calcium Influx as an Index
CHO-K1/GluR1 flip/stargazin-expressing cells were plated on a 384 well black bottom transparent plate, and cultured for 2 days in a CO2 incubator (SANYO ELECTRIC Co. Ltd.) at 37° C. The medium of the cell plate was removed. A calcium indicator (Calcium5 Assay Kit, Molecular Devices) was diluted with an assay buffer (HBSS (Thermo Fisher Scientific), 0.1% BSA (Merck Millipoer) and 10 mM HEPES (Thermo Fisher Scientific)), and 1.25 mM probenecid (Dojindo Laboratories) was added thereto. The mixture prepared above was added at 30 μL/well (100 μL/well in case of 96 wells) to the well, and the well was left standing in 37° C., CO2 incubator for 1 hr. The cell plate was set in CellLux (PerkinElmer), a mixture (15 μL) (50 μL/well in case of 96 wells) of […] glutamic acid (final concentration 3 mM) diluted with an assay buffer and a test compound (test compound concentration 30 μM) was added thereto, and variation in the amount of fluorescence was measured for 3 min. The variation of fluorescence level of a well added with final concentration 3 mM of glutamic acid and 300 μM cyclothiazide (TOCRIS) was defined as 100%, the variation of fluorescence level of a well added with final concentration 3 mM of glutamic acid alone was defined as 0%, and the activity of the compound was calculated by the following formula. activity (%)=(X−C)/(T−C)×100 • T: variation of fluorescence level of well added with final concentration 3 mM of glutamic acid and 300 μM cyclothiazide • C: variation of fluorescence level of well added with final concentration 3 mM of glutamic acid alone • X: variation of fluorescence level of well added with test compound

[2] = system: Long Evans rats; assay: Novel object recognition test; assay type: in vivo, rat; settings: male Long Evans rats; for Novel Object Interaction (%): 1 mg/kg p.o. 1 hr before acquisition trial and 1 hr before retention trial, retention trial 48 hr after acquisition, mean ± standard error; for novel object interaction (result in words): 1 mg/kg p.o., versus 0 mg/kg
Excerpt: Experimental Example 2 Novel Object Recognition Test
Male Long Evans rats were supplied by Japan SLC, and used at 7-week-old in the experiments. After arrival to the vivarium, animals were allowed a minimum of 1 week for acclimation. They were housed under a 12:12-h light/dark cycle in a temperature- and humidity-controlled laboratory and allowed food and water ad libitum.
A test compound was suspended in 0.5% methylcellulose in distilled water and orally administered (p.o.). All test compounds were dosed in a volume of 2 mL/kg body weight for rats.
(3) Novel Object Recognition Test
Novel object recognition test is a test system utilizing the novel object preference characteristics of rodents. This novel object recognition test consists of two trials, “acquisition trial” and “retention trial”, and, when an interval between these two trials is short, rodents spend a longer period for novel object exploration behaviors, and the preference dissipates as the interval gets longer. From this, the behavioral change in the novel object recognition test is considered to reflect the rodents' memory of the object during the acquisition trial. In this experimental example, the retention trial was carried out 48 hr after the acquisition trial. On the day before the test, for acclimation, Long-Evans rats were allowed to freely move about the test box (40×40×50 cm) for 10 minutes. On the test day, the rats were acclimated to the test room for about 1 hr prior to the test. The test compound (Compound A (Example 10), Compound B (Example 35), 1 mg/kg) were orally administered to the rats twice 1 hr before the acquisition trial and 1 hr before the retention trial. For the acquisition trial, two identical objects (A1, A2) were placed in the test box. The rats were put in the test box for 3 min, and the duration contacting each object was measured. The retention trial was carried out 48 hr after the acquisition trial. For the retention trial, the familiar object (A3) used for the acquisition trial and the novel object (B) different shape from A3 were placed in the test box. The rats were put in the test box for 3 min. The duration contacting each object in the acquisition trial and the retention trial, and the novel object interaction (%) was calculated. The novel object interaction (%) was expressed as (the duration contacting the novel object)/[(the duration contacting the novel object)+(the duration contacting the familiar object)]×100(%) at mean±standard error.

T1 sequence (P42261 19-906 isoform P42261-2 limits assumed): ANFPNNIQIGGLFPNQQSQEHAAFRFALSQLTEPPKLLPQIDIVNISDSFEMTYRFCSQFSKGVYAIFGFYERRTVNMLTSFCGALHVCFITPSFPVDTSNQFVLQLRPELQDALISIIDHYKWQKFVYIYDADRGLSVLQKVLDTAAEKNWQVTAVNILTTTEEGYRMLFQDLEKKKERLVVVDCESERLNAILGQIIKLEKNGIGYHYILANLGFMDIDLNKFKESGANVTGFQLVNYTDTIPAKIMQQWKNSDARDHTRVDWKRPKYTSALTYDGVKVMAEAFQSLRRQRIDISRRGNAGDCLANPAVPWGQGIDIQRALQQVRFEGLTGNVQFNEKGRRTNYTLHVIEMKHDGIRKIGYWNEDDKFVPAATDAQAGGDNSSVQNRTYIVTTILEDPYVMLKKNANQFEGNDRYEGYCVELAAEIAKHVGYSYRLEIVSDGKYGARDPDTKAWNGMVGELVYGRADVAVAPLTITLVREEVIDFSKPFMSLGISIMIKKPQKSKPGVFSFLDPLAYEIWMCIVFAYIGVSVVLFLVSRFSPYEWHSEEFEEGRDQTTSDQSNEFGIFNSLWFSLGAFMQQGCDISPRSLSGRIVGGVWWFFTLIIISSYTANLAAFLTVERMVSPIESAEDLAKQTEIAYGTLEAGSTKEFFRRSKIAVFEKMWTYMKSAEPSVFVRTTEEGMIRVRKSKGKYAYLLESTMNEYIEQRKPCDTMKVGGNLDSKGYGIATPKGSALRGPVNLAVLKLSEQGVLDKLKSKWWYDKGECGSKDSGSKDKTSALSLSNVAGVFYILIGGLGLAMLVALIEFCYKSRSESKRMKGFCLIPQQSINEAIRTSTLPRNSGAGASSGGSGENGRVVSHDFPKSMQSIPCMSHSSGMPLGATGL
T1 sequence (Q9Y698 whole entry partner): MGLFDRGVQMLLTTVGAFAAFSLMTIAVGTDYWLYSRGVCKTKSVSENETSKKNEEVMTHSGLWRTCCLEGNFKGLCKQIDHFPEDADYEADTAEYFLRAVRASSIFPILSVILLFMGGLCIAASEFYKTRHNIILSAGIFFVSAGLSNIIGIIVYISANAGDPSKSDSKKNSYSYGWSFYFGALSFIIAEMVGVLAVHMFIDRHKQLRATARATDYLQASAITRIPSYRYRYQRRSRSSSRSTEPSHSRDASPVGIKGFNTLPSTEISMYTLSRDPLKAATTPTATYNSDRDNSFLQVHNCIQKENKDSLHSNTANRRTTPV

SMILES | activation at 30 µM [1] [%] | Novel Object Interaction (%) [2] [%] | novel object interaction (result in words) [2]
O=C(c1ccc(-c2nccc3c2nc(C(F)(F)F)n3CC(F)F)cc1F)N1CCOCC1 [Example 10, (4-(1-(2,2-difluoroethyl)-2-(trifluoromethyl)-1H-imidazo[4,5-c]pyridin-4-yl)-2-fluorophenyl)(morpholin-4-yl)methanone] | 90.5 | 56.32 ± 1.56 | increased
O=C(c1ncc(-c2cccc3c2nc(C(F)(F)F)n3CC(F)F)cc1F)N1CCOCC1 [Example 35, (5-(1-(2,2-difluoroethyl)-2-(trifluoromethyl)-1H-benzimidazol-4-yl)-3-fluoropyridin-2-yl)(morpholin-4-yl)methanone] | 81.2 | 61.28 ± 2.35 | increased
CO[C@@H]1CCN(C(=O)c2ccc(-c3nccc4c3nc(C(F)(F)F)n4CC(F)F)cc2F)C1 [Example 37, (4-(1-(2,2-difluoroethyl)-2-(trifluoromethyl)-1H-imidazo[4,5-c]pyridin-4-yl)-2-fluorophenyl)((3R)-3-methoxypyrrolidin-1-yl)methanone] | 89.8 |  | 
Cc1cc2c(nc(C(F)(F)F)n2CC(F)F)c(-c2ccc(C(=O)N3CCOCC(F)(F)C3)c(F)c2)n1 [Example 38, (4-(1-(2,2-difluoroethyl)-6-methyl-2-(trifluoromethyl)-1H-imidazo[4,5-c]pyridin-4-yl)-2-fluorophenyl)(6,6-difluoro-1,4-oxazepan-4-yl)methanone] | 100 |  | 
O=C(c1ccc(-c2nccc3c2nc(C(F)(F)F)n3CC(F)F)c(F)c1F)N1CCOCC1 [Example 42, (4-(1-(2,2-difluoroethyl)-2-(trifluoromethyl)-1H-imidazo[4,5-c]pyridin-4-yl)-2,3-difluorophenyl)(morpholin-4-yl)methanone] | 83.9 |  | 
C[C@@H]1CN(C(=O)c2ccc(-c3nccc4c3nc(C(F)(F)F)n4CC(F)F)cc2F)CCO1 [Example 44, (4-(1-(2,2-difluoroethyl)-2-(trifluoromethyl)-1H-imidazo[4,5-c]pyridin-4-yl)-2-fluorophenyl)((2R)-2-methylmorpholin-4-yl)methanone] | 85.5 |  | 
O=C(c1ccc(-c2nccc3c2nc(C(F)(F)F)n3CC(F)F)cc1F)N1CCOCC2(CC2)C1 [Example 48, (4-(1-(2,2-difluoroethyl)-2-(trifluoromethyl)-1H-imidazo[4,5-c]pyridin-4-yl)-2-fluorophenyl)(5-oxa-8-azaspiro[2.6]non-8-yl)methanone] | 80.2 |  | 
COC1CCN(C(=O)c2ccc(-c3nccc4c3nc(C(F)(F)F)n4CC(F)F)cc2F)CC1 [Example 52, (4-(1-(2,2-difluoroethyl)-2-(trifluoromethyl)-1H-imidazo[4,5-c]pyridin-4-yl)-2-fluorophenyl)(4-methoxypiperidin-1-yl)methanone] | 67.1 |  | 
O=C(c1ccc(-c2nccc3c2nc(C(F)(F)F)n3CC(F)F)c(F)c1)N1CCOCC1 [Example 53, (4-(1-(2,2-difluoroethyl)-2-(trifluoromethyl)-1H-imidazo[4,5-c]pyridin-4-yl)-3-fluorophenyl)(morpholin-4-yl)methanone] | 69 |  | 

Further lines, with some results ahead:

activation at 30 µM [1] [%] | SMILES | Novel Object Interaction (%) [2] [%] | novel object interaction (result in words) [2]
110 | O=C(c1ccc(-c2cccc3c2nc(C(F)(F)F)n3CC(F)F)cn1)N1CCOCC(F)(F)C1 [Example 39, (5-(1-(2,2-difluoroethyl)-2-(trifluoromethyl)-1H-benzimidazol-4-yl)pyridin-2-yl)(6,6-difluoro-1,4-oxazepan-4-yl)methanone] |  | 
77 | O=C(c1ccc(-c2cccc3c2nc(C(F)(F)F)n3CC(F)F)nc1)N1CCOCC(F)(F)C1 [Example 46, (6-(1-(2,2-difluoroethyl)-2-(trifluoromethyl)-1H-benzimidazol-4-yl)pyridin-3-yl)(6,6-difluoro-1,4-oxazepan-4-yl)methanone] |  | 
122 | O=C(c1ccc(-c2nccc3c2nc(C(F)(F)F)n3CC(F)F)cc1)N1CCOCC(F)(F)C1 [Example 50, (4-(1-(2,2-difluoroethyl)-2-(trifluoromethyl)-1H-imidazo[4,5-c]pyridin-4-yl)phenyl)(6,6-difluoro-1,4-oxazepan-4-yl)methanone] |  | 
113 | O=C(c1ccc(-c2cccc3c2nc(C(F)(F)F)n3CC(F)F)c(F)c1)N1CCOCC1 [Example 51, (4-(1-(2,2-difluoroethyl)-2-(trifluoromethyl)-1H-benzimidazol-4-yl)-3-fluorophenyl)(morpholin-4-yl)methanone] |  | 
